We go through 36 compounds from patent US7902373B2 (Pfizer Inc, priority 2006, dated 2011).

For assay [1], the target named is T1, human recombinant H-PGDS (Homo sapiens, UniProt O60760). As to the kind of experiment: Slightly modified h-PGDS TBA enzyme assay (Examples 623 onwards). The format is biochemical. The procedure:
Prostaglandin D Synthase (PGDS) converts the substrate prostaglandin H2 (PGH2) to prostaglandin D2.
Examples 623 onwards were tested in a slightly modified assay: The enzyme assay (30 μls during biological process) contained 100 mM Trizma pH 8.0, 100 μM MgCl2, 0.1 mg/ml IgG Rabbit serum, 5.0 μM PGH2 (Cayman; ethanol solution, #17020), 2.5 mM L-Glutathione (Sigma; reduced form #G4251), 1:40,000 human recombinant H-PGDS (from 1 mg/ml), 0.5% DMSO and inhibitor (varying concentration). 3 μls of diluted inhibitor (dissolved in DMSO) was plated into a 384-well assay plate followed by a 24 μl addition of an enzyme solution containing h-PGDS, Trizma, MgCl2, IgG and L-Glutathione. After pre-incubation of inhibitor and enzyme solution for 10 minutes at room temperature, the reaction was initiated with a 3 μl addition of substrate solution in 10 mM HCl. The reaction was terminated after 40 second by the addition of 3 μl stop buffer containing FeCl2 and citric acid. After addition of 45 μl of TBA plates were heated for one hour in a 70° C. oven. Plates were cooled at room temperature overnight and read on a plate reader the next day with excitation @ 530 nm and emission @ 560 nm. IC50's of inhibitors were calculated with a 4-parameter fit using 11 inhibitor concentrations in duplicate with 1/2 log serial dilutions. […] The highest inhibitor concentration tested was typically 10 μM.

Assay [2] addresses T1, human recombinant H-PGDS. As to the kind of experiment: Fluorescence intensity h-PGDS TBA enzyme assay. Conditions: Examples up to 622 (and 3a, 3b). The format is biochemical.

T1 sequence (O60760 whole entry): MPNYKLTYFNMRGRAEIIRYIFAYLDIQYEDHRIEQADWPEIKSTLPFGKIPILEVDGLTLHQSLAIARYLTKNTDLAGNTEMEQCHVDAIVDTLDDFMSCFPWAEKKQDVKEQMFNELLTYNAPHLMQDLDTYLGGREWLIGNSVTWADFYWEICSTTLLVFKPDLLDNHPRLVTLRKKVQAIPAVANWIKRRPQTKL

For `O=C(NC1CCN(c2ncccn2)CC1)c1ccc(-c2ccccc2O)nc1` [Example 625, 6-(2-Hydroxyphenyl)-N-(1-pyrimidin-2-ylpiperidin-4-yl)nicotinamide], the IC50 at human recombinant H-PGDS [1] came out at 4.06 nM.

For the compound `Cn1nnnc1N1CCC(NC(=O)c2ccc(-c3cc(F)ccc3O)nc2)CC1` [Example 643], at human recombinant H-PGDS [1], the IC50 was 7.77 nM.

As to `COCCN1CCC(NC(=O)c2ccc(-c3cc(F)ccc3O)nc2)CC1` [Example 637], on human recombinant H-PGDS [1], the IC50 amounted to 62.4 nM.

With `CC(C)S(=O)(=O)N1CCC(NC(=O)c2ccc(-c3cc(F)ccc3O)nc2)CC1` [Example 642], the IC50 on human recombinant H-PGDS [1] was 13.9 nM.

Turning to `COCCN1CCC(NC(=O)c2ccc(-c3ccccc3O)nc2)CC1` [Example 630], the IC50 at human recombinant H-PGDS [1] amounted to 32.8 nM.

`N#Cc1ccccc1-c1ccc(C(=O)NC2CCN(CC(F)(F)F)CC2)cn1` [Example 624, 6-(2-Cyanophenyl)-N-[1-(2,2,2-trifluoroethyl)piperidin-4-yl]nicotinamide]: the IC50 on human recombinant H-PGDS [1] was found to be 36 nM.

In the case of `O=C(NC1CCN(c2ncnc3c2ncn3CCN2CCCCC2)CC1)c1ccc(-c2cccc(F)c2)nc1` [Example 107, 6-(3-Fluorophenyl)-N-{1-[9-(2-piperidin-1-ylethyl)-9H-purin-6-yl]piperidin-4-yl}nicotinamide], on human recombinant H-PGDS [2], the IC50 was determined as 0.804 nM.

As to `CCOC(=O)c1cnc(N2CCC(NC(=O)c3ccc(-c4cccc(F)c4)nc3)CC2)cc1N1CCOCC1` [Example 120, Ethyl 6-[4-({[6-(3-fluorophenyl)pyridin-3-yl]carbonyl}amino)piperidin-1-yl]-4-morpholin-4-ylnicotinate], the IC50 at human recombinant H-PGDS [2] was 3.49 nM.

With `Cn1cc(CN2CCC(NC(=O)c3ccc(-c4cccc(F)c4)nc3)CC2)c2ccccc21` [Example 242, 6-(3-Fluorophenyl)-N-{1-[(1-methyl-1H-indol-3-yl)methyl]piperidin-4-yl}nicotinamide], the IC50 on human recombinant H-PGDS [2] was determined as 0.781 nM.

Take `O=C(NC1CCN(c2nccc(Nc3cc[nH]n3)n2)CC1)c1ccc(-c2cccc(F)c2)nc1` [Example 128, 6-(3-Fluorophenyl)-N-{1-[4-(1H-pyrazol-3-ylamino)pyrimidin-2-yl]piperidin-4-yl}nicotinamide]: on human recombinant H-PGDS [2], the IC50 came to 0.687 nM.

`O=C(NC1CCN(c2ncnc3c2ncn3C2CCCCO2)CC1)c1ccc(-c2cccc(F)c2)nc1` (stereo not drawn) [Example 147, 6-(3-Fluorophenyl)-N-{1-[9-(tetrahydro-2H-pyran-2-yl)-9H-purin-6-yl]piperidin-4-yl}nicotinamide]: the IC50 at human recombinant H-PGDS [2] was 0.737 nM.

Consider `N#Cc1cc(CN2CCC(NC(=O)c3ccc(-c4cccc(F)c4)nc3)CC2)ccc1F` [Example 303, N-[1-(3-Cyano-4-fluorobenzyl)piperidin-4-yl]-6-(3-fluorophenyl)nicotinamide], for which the IC50 on human recombinant H-PGDS [2] worked out at 0.662 nM.

On to `O=C(NC1CCN(Cc2cc(F)ccc2F)CC1)c1ccc(-c2cccc(F)c2)nc1` [Example 239, N-[1-(2,5-Difluorobenzyl)piperidin-4-yl]-6-(3-fluorophenyl)nicotinamide], for which, at human recombinant H-PGDS [2], the 50% inhibitory concentration (IC50) was 0.245 nM.

Take `NC(=O)c1ccc(N2CCC(NC(=O)c3ccc(-c4cccc(F)c4)nc3)CC2)nc1` [Example 68, N-{1-[5-(Aminocarbonyl)pyridin-2-yl]piperidin-4-yl}-6-(3-fluorophenyl)nicotinamide]: the IC50 at human recombinant H-PGDS [2] worked out at 0.361 nM.

Consider `COc1ccc(-c2cc(N3CCC(NC(=O)c4ccc(-c5cccc(F)c5)nc4)CC3)ncn2)cc1OC` [Example 55, N-{1-[6-(3,4-Dimethoxyphenyl)pyrimidin-4-yl]piperidin-4-yl}-6-(3-fluorophenyl)nicotinamide], for which the IC50 on human recombinant H-PGDS [2] amounted to 1.67 nM.

Regarding `COc1cc(CN2CCC(NC(=O)c3ccc(-c4cccc(F)c4)nc3)CC2)ccc1C` [Example 496, 6-(3-Fluorophenyl)-N-[1-(3-methoxy-4-methylbenzyl)piperidin-4-yl]nicotinamide], the IC50 on human recombinant H-PGDS [2] came to 0.569 nM.

`Cc1nc(N2CCC(NC(=O)c3ccc(-c4cccc(F)c4)nc3)CC2)c(C#N)cc1F` [Example 121, N-[1-(3-Cyano-5-fluoro-6-methylpyridin-2-yl)piperidin-4-yl]-6-(3-fluorophenyl)nicotinamide]: the IC50 on human recombinant H-PGDS [2] was 1.21 nM.

Regarding `O=C(NC1CCN(Cc2cccc(-c3ccccn3)c2)CC1)c1ccc(-c2cccc(F)c2)nc1` [Example 188, 6-(3-Fluorophenyl)-N-[1-(3-pyridin-2-ylbenzyl)piperidin-4-yl]nicotinamide], the IC50 at human recombinant H-PGDS [2] stood at 2.25 nM.

With “N-(1-{[4-(3,4)-1,3-Thiazol-2-yl]methyl}piperidin-4-yl)- 6-(3-fluorophenyl)nicotinamide [Example 413]”, the IC50 on human recombinant H-PGDS [2] amounted to 1000 nM.

Take `Cc1nn(-c2ccccc2)c(C)c1CN1CCC(NC(=O)c2ccc(-c3cccc(F)c3)nc2)CC1` [Example 335, N-{1-[(3,5-Dimethyl-1-phenyl-1H-pyrazol-4-yl)methyl]piperidin-4-yl}-6-(3-fluorophenyl)nicotinamide]: the 50% inhibitory concentration (IC50) on human recombinant H-PGDS [2] worked out at 0.776 nM.

For the compound `CC(C)Oc1ncccc1CN1CCC(NC(=O)c2ccc(-c3cccc(F)c3)nc2)CC1` [Example 461, 6-(3-Fluorophenyl)-N-{1-[(2-isopropoxypyridin-3-yl)methyl]piperidin-4-yl}nicotinamide], the IC50 at human recombinant H-PGDS [2] was found to be 0.239 nM.

`CC(C)(C)OC(=O)NC1CCC(CN2CCC(NC(=O)c3ccc(-c4cccc(F)c4)nc3)CC2)CC1` (stereo not drawn) [Example 416, tert-Butyl (4-{[4-({[6-(3-fluorophenyl)pyridin-3-yl]carbonyl}amino)piperidin-1-yl]methyl}cyclohexyl)carbamate]: on human recombinant H-PGDS [2], the IC50 stood at 1.68 nM.

As to `Cc1cccc(CN2CCC(NC(=O)c3ccc(-c4cccc(F)c4)nc3)CC2)n1` [Example 283, 6-(3-Fluorophenyl)-N-{1-[(6-methylpyridin-2-yl)methyl]piperidin-4-yl}nicotinamide], the IC50 on human recombinant H-PGDS [2] came to 0.5 nM.

In the case of `O=C(NC1CCN(Cc2ccc(CF)nc2)CC1)c1ccc(-c2cccc(F)c2)nc1` [Example 476, N-(1-{[6-(Fluoromethyl)pyridin-3-yl]methyl}piperidin-4-yl)-6-(3-fluorophenyl)nicotinamide], the concentration for half-maximal inhibition (IC50) on human recombinant H-PGDS [2] came out at 0.935 nM.

Consider `O=C(NC1CCN(Cc2ccc(Cl)cc2)CC1)c1ccc(-c2cccc(F)c2)nc1` [Example 225, N-[1-(4-Chlorobenzyl)piperidin-4-yl]-6-(3-fluorophenyl)nicotinamide], for which the IC50 at human recombinant H-PGDS [2] turned out to be 2.48 nM.

With `O=C(NC1CCN(Cc2cc3ccccc3nn2)CC1)c1ccc(-c2cccc(F)c2)nc1` [Example 261, N-[1-(Cinnolin-3-ylmethyl)piperidin-4-yl]-6-(3-fluorophenyl)nicotinamide], the IC50 at human recombinant H-PGDS [2] is 1.48 nM.

For the compound `CC1(CN2CCC(NC(=O)c3ccc(-c4cccc(F)c4)nc3)CC2)CC1` [Example 505, 6-(3-Fluorophenyl)-N-{1-[(1-methylcyclopropyl)methyl]piperidin-4-yl}nicotinamide], the concentration for half-maximal inhibition (IC50) on human recombinant H-PGDS [2] turned out to be 0.418 nM.

Turning to `Cn1ncc(CN2CCC(NC(=O)c3ccc(-c4cccc(F)c4)nc3)CC2)c1-c1ccccc1` [Example 498, 6-(3-Fluorophenyl)-N-{1-[(1-methyl-5-phenyl-1H-pyrazol-4-yl)methyl]piperidin-4-yl}nicotinamide], the IC50 on human recombinant H-PGDS [2] came out at 0.3 nM.

`O=C(NC1CCN(c2nc3ccccc3nc2NCCO)CC1)c1ccc(-c2cccc(F)c2)nc1` [Example 43, 6-(3-Fluorophenyl)-N-(1-{3-[(2-hydroxyethyl)amino]quinoxalin-2-yl}piperidin-4-yl)nicotinamide]: the IC50 at human recombinant H-PGDS [2] is 2.18 nM.

Consider `Cc1cc(N2CCC(NC(=O)c3ccc(-c4cccc(F)c4)nc3)CC2)nc(N)n1` [Example 45, N-[1-(2-Amino-6-methylpyrimidin-4-yl)piperidin-4-yl]-6-(3-fluorophenyl)nicotinamide], for which the IC50 on human recombinant H-PGDS [2] was found to be 0.773 nM.

Turning to `Cc1ccc(CN2CCC(NC(=O)c3ccc(-c4cccc(F)c4)nc3)CC2)cn1` [Example 354, 6-(3-Fluorophenyl)-N-{1-[(6-methylpyridin-3-yl)methyl]piperidin-4-yl}nicotinamide], the IC50 at human recombinant H-PGDS [2] came to 2.92 nM.

For the compound `Cc1onc(-c2ccccc2)c1CN1CCC(NC(=O)c2ccc(-c3cccc(F)c3)nc2)CC1` [Example 344, 6-(3-Fluorophenyl)-N-{1-[(5-methyl-3-phenylisoxazol-4-yl)methyl]piperidin-4-yl}nicotinamide], at human recombinant H-PGDS [2], the IC50 stood at 0.174 nM.

`Cn1c(CN2CCC(NC(=O)c3ccc(-c4cccc(F)c4)nc3)CC2)nc2ccccc21` [Example 219, 6-(3-Fluorophenyl)-N-{1-[(1-methyl-1H-benzimidazol-2-yl)methyl]piperidin-4-yl}nicotinamide]: the IC50 at human recombinant H-PGDS [2] was 0.749 nM.

Turning to `Cc1ncc2c(n1)CCC(CN1CCC(NC(=O)c3ccc(-c4cccc(F)c4)nc3)CC1)C2` (stereo not drawn) [Example 401, 6-(3-Fluorophenyl)-N-{1-[(2-methyl-5,6,7,8-tetrahydroquinazolin-6-yl)methyl]piperidin-4-yl}nicotinamide], at human recombinant H-PGDS [2], the IC50 is 0.574 nM.

For the compound `CC(C)N1CCC(NC(=O)c2ccc(-c3cccc(F)c3)nc2)CC1` [Example 30, 6-(3-Fluorophenyl)-N-(1-isopropylpiperidin-4-yl)nicotinamide], the IC50 on human recombinant H-PGDS [2] worked out at 3.79 nM.

Turning to `Cc1nn(C(C)C)c(C)c1CN1CCC(NC(=O)c2ccc(-c3cccc(F)c3)nc2)CC1` [Example 361, 6-(3-Fluorophenyl)-N-{1-[(1-isopropyl-3,5-dimethyl-1H-pyrazol-4-yl)methyl]piperidin-4-yl}nicotinamide], the IC50 at human recombinant H-PGDS [2] was 1.35 nM.

The IC50 is the midpoint of a concentration-inhibition curve.
